In patent publication US8207222B2, “Nitric oxide releasing derivatives of paracetamol” (Council of Scientific and Industrial Research, priority 2007, dated 2012):
Several values for one entry are separate records, joined by “and”; a condition that tells them apart may be missing. Equal entries are not always repeated. Entries after “also recorded” stand apart in the source; their conditions may differ. Marks after values point to notes of the source that are not given here.

How the values were obtained:
liver = liver histopathology (haematoxylin and eosin); format: in vivo, mouse; settings: 1000 mg/kg, i.p.; H&E stain
Text: Histopathology (FIG. 5 Sheet No. 3) For liver histopathology, the livers were removed and portions were fixed in 10% buffered formalin (pH 7.4). They were then processed by standard histopathological techniques, stained with Haematoxylin and Eosin (H&E), and examined for morphologic evaluation for liver injury.^21

SGPT/ALT = assay: plasma marker of liver injury SGPT/ALT, spectrophotometric kit; format: in vivo; settings: 1000 mg/kg, 6 hr after administration, vs basal value, mean ± SEM
Protocol: (§1) Biochemical Assays (Table 3 and FIG. 2 Sheet No. 1 for SGPT(ALT), and Table 4 and FIG. 3 Sheet No. 2 for ALP): Paracetamol was given at a dose of 1000 mg/Kg and an equivalent dose of 1000 mg/Kg of the derivatives 12 and 13 was given p.o. Before administration blood samples of each animal were taken and after 6 hrs the animals were sacrificed to collect blood samples, and the serum was separated out. Measurement of plasma markers of liver Serum Glutamate oxaloacetate transaminase (SGOT) pyruvate transaminase (SGPT) and Alkaline Phosphatase (ALP) were assayed spectrophotometrically using commercially available kits.
(§2) The animals were divided into different groups containing 6-8 animals in each group. Animals were lightly anaesthetized with diethyl ether and blood samples were collected which served as the basal reading of the enzyme to be analyzed. These groups of rats were then treated with paracetamol (1000 mg/Kg, i.p.), and equivalent dose of the test compounds. Control group was treated with an equal volume of vehicle (0.9% w/v sodium chloride containing 20% v/v tween-80). Animals were lightly anesthetized with ethyl ether and blood samples were collected and allowed to coagulate at room temperature for 1 hr, serum was then separated by centrifugation (5,000 rpm for 10 min) at 4° C. and stored at −40.0° C. till estimation. Plasma markers of liver injury were assayed spectrophotometrically using following commercially available kits according to standard laboratory techniques:
(§3) […]. Enzymes like alkaline phosphatase (ALP, EC 3.1.3.1), serum glutamate pyruvate transaminase (SGPT) or alanine aminotransferase (ALT) ([…]) and the total proteins are considered as plasma markers of liver injury. Nitric oxide releasing paracetamol derivatives 12 and 13 were evaluated for their effect on the markers of liver injury like enzymes ALP and SGPT/ALT. The plasma level of these enzymes is found to increase in the case of liver toxicity.

ALP = format: in vivo; settings: 1000 mg/kg; 6 hr after administration, vs basal value; mean ± SEM
Protocol: as §1, §2, §3

cox-2 (ovine) = target: T1, cox-2 (ovine) (Ovis aries, UniProt P79208); assay: In vitro cox-2 (ovine) inhibitory assay; format: biochemical; settings: prostaglandin quantified by EIA, concentration not given
T1 construct: purchased Cayman Chemical Company, USA
T1 sequence (P79208 17-603): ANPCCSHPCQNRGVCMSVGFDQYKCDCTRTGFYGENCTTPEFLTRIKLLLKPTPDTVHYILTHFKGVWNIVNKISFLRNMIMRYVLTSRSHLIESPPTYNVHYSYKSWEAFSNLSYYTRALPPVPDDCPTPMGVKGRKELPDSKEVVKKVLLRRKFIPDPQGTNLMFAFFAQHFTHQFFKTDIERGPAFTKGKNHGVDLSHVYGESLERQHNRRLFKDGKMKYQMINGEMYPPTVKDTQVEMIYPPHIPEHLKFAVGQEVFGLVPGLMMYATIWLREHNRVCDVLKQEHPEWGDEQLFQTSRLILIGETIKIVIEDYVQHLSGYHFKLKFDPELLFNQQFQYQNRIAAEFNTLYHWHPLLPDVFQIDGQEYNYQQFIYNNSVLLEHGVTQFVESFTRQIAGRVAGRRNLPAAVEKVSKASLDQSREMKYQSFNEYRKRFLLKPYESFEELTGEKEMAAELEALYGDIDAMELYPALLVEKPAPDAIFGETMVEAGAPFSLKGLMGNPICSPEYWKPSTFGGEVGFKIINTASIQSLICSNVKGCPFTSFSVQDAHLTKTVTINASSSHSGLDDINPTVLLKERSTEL
Text: In vitro cox-2 (ovine) inhibitory assay: The prostaglandin product is quantified via enzyme immunoassay (EIA) using a broadly specific antibody that binds to all major prostaglandin compounds. Assay kit was purchased from Cayman Chemical Company, USA.

[1] = tested on: carrageenan induced rat paw edema; assay: carrageenan induced rat paw edema model (anti-inflammatory activity); format: in vivo, Wistar rats; settings: 100 mg/kg p.o.; for % Increase in paw volume Mean ± SEM 2 hr: 2 hr after carrageenan challenge; for anti-inflammatory activity (in words): 2 hr and 4 hr; for % Increase in paw volume Mean ± SEM 4 hr: 4 hr after carrageenan challenge
Text: Animals: Wistar rats (male 150-200 g) of both sex and Laca mice (male, 25-35 g) procured from Central Animal House, Punjab University, Chandigarh, India were used. Animals were housed under standard laboratory conditions and maintained on rat chow, Animals were allowed free access to food and water until used and fasted 24 hr prior to studies.
Experimental conditions: Unless otherwise stated, the following conditions were employed in all experiments. The test compounds were suspended in 0.5% carboxymethylcellulose (CMC) and administered per orally (p.o.). Control animals were given the corresponding amount of vehicle (0.5%, CMC).
Anti-inflammatory activity (Table 1): Anti-inflammatory activity was determined by using carrageenan induced rat paw edema model. Rats were divided into different groups and the drugs were administered to each group.
Paw edema in rats (various modifications and various irritants) is the most widely used method for testing acute and subacute inflammation. It is based upon the ability of anti-inflammatory agents to inhibit the edema produced in the hind paw of the rat after injection of a phlogistic agent. Many phlogistic agents (irritants) have been used, such as brewer's yeast, formaldehyde, dextran, egg albumin, kaolin, sulfated polysaccharides like carrageenin or naphthoylheparamine. The volume of the injected paw is measured before and after application of the irritant and the paw volume of the treated animals is compared to the control. The details of the experiment carried out are described below:
The paracetamol (1) and synthesized NO-releasing derivatives (12 and 13) were administered p.o. at a dose of 100 mg/kg, p.o., emulsified in 0.5% sodium carboxy methyl cellulose (0.5% sodium CMC). Anti-inflammatory activity was determined by using carrageenan induced rat paw edema model. Rats were divided into different groups and the drugs/derivatives were administered to each group. Acute edema was induced in left hind paw of rats by injecting freshly prepared solution of carrageenan (Type IV, 0.1 ml, 1%) under plantar region of left hind paw. In the right paw, saline ([…], 0.9%) was injected, which served as control for comparison. The increase in paw volume was measured by using plethysmometer (water displacement, UGO BASILE, Varese, Italy) at 2 hr and 4 hr after carrageenan challenge. Percentage change (increase) in paw volume was calculated and expressed as the amount of inflammation. % increase in paw volume at any time=(V1−Vr)/Vr×100
Where, V1 Volume of left paw • Vr=Volume of right paw (control)

[2] = tested on: acetic acid induced writhing; assay: acetic acid induced writhing assay (analgesic activity); format: in vivo, Laca mice; settings: 100 mg/kg p.o., 30 min prior to i.p. acetic acid, mean ± SEM
Protocol: Animals: Wistar rats (male 150-200 g) of both sex and Laca mice (male, 25-35 g) procured from Central Animal House, Punjab University, Chandigarh, India were used. Animals were housed under standard laboratory conditions and maintained on rat chow, Animals were allowed free access to food and water until used and fasted 24 hr prior to studies. Analgesic activity (Table 2 and FIG. 1 Sheet No. 1 FIG. 3): Analgesic activity was determined by using abdominal writhing assay. Mice were divided into different groups containing 6 animals in each group. Pain can be induced by injection of irritants into the peritoneal cavity of mice. The animals react with a characteristic stretching behaviour which is called writhing. An irritating agent such as phenylquinone or acetic acid can be injected intraperitoneally to mice and the stretching reaction is evaluated. The most commonly used methods for measuring peripheral analgesic activity are the writhing tests in mice. The details of the experiment carried out are mentioned below: Analgesic activity was determined against acetic acid induced writhing assay. Writhing was induced by intraperitoneal (i.p.) injection of freshly prepared acetic acid solution. Mice were per orally (p.o.) administered paracetamol (1) and synthesized NO-releasing derivatives (12 and 13) at a dose of 100 mg/kg, emulsified in 0.5% sodium carboxy methyl cellulose (sodium CMC) vehicle, 30 min prior to i.p. acetic acid (1% w/v in saline pH 2.7, 10 ml/kg, i.p.). Animals were immediately transferred to individual observation chambers and number of writhes (constriction of abdomen, turning of trunk, and extension of hind Limbs) were monitored over the following 20 minutes, beginning 3 min after the injection of acetic acid. At the end of observation period the animals were killed by cervical dislocation and exsaguination. The average number of writhes in each group of drug treated mice was compared with that of the control group and degree of analgesia was expressed as % inhibition calculated from the equation: % Inhibition=(1−Nt/Nc)×100 Where, Nc=number of writhes in control • Nt=number of writhes in drug treated mice

[3] = in vivo nitric oxide release, serum nitrate/nitrite by Cayman kit; settings: for NO serum level: dose of 100 mg/kg body weight, control 182.1±0.68, in µmol/L; for serum nitrate/nitrite concentration: 6 hours after 100 mg/Kg p.o., control 182.1 ± 0.68
Protocol: 100 mg/Kg of the derivatives 12 and 13 was given p.o. After 6 hours the animals were sacrificed to collect blood samples and the serum was separated out to find out the levels of NO. Plasma nitrate/nitrite concentration level was measured by commercially available Cayman Kit.

SMILES | liver damage in histopathology (light microscopy) (liver) | % INCREASE IN SGPT/ALT LEVEL (SGPT/ALT; listed as Paracetamol (1)) [%] | % INCREASE IN SGPT/ALT LEVEL (SGPT/ALT; listed as paracetamol (1)) | % INCREASE IN ALP LEVEL (ALP) [%] | cox-2 (ovine) inhibition (cox-2 (ovine)) [%] | % Increase in paw volume Mean ± SEM 2 hr [1] [%] | % Increase in paw volume Mean ± SEM 2 hr ([1]; listed as paracetamol) [%] | % Increase in paw volume Mean ± SEM 2 hr ([1]; listed as paracetamol (1)) [%] | anti-inflammatory activity (in words) [1] | % Increase in paw volume Mean ± SEM 4 hr [1] | % Increase in paw volume Mean ± SEM 4 hr ([1]; listed as paracetamol) [%] | % Increase in paw volume Mean ± SEM 4 hr ([1]; listed as paracetamol (1)) [%] | % INHIBITION IN WRITHINGS [2] [%] | % INHIBITION IN WRITHINGS ([2]; listed as paracetamol (1)) [%] | NO serum level [3] | serum nitrate/nitrite concentration [3] [µmol/L] | % INCREASE IN SGPT/ALT LEVEL (SGPT/ALT) | melting point [°C]
CC(=O)Nc1ccc(O)cc1 [Compound 1, N-(4-hydroxyphenyl)-acetamide, reference compound] | ballooning degeneration, sinusoidal decongestion, portal triad inflammation and spoty necrosis in Zone I | 83.11 ± 3.3 | more than 80% | 15.75 ± 1.07 | 24.0 | 38.37 ± 1.26 | 38.37±1.26 | 38.37±1.26 | No significant activity | 58.92 ± 1.56% | 58.92±1.56 | 58.92±1.56 | 45.36 ± 1.34 | 45.36±1.34 |  |  |  | 
CC(=O)Nc1ccc(OCCO[N+](=O)[O-])cc1 [Compound 12, N-[4-(2-Nitrooxy-ethoxy)-phenyl]-acetamide] | Mild ballooning degeneration |  |  | 4.17 ± 0.62 | 21.0 | 32.68±1.45 |  |  | good anti-inflammatory activity | 26.44±0.10% and 26.44 ± .10% |  |  | 58.35±1.50 |  | 354.2±2.17 | 354.2 ± 2.17 | 27.94 ± 2.7*^,# % | 
CC(=O)Nc1ccc(OCCCCCO[N+](=O)[O-])cc1 [Compound 13, N-[4-(5-Nitrooxy-pentoxy)-phenyl]-acetamide] | didn't cause any significant damage to the liver; also recorded: no significant damage |  |  | 2.85 ± 0.83 | 32.5 | 31.15±1.31 |  |  |  | 28.45±1.28% |  |  | 61.80±1.69 |  | 265.4±2.47 | 265.4 ± 2.47 | 11.72 ± 1.4*^,# % | 
CC(=O)Nc1ccc(OCCCCO[N+](=O)[O-])cc1 [Compound 19, N-[4-(4-Nitrooxy-butoxy)-phenyl]-acetamide] |  |  |  |  |  |  |  |  |  |  |  |  |  |  |  |  |  | 92 to 98
